Ten compounds from ChEMBL document CHEMBL4725353, “Discovery of Pyrido[2,3-b]indole Derivatives with Gram-Negative Activity Targeting Both DNA Gyrase and Topoisomerase IV” (J Med Chem, 2020) can be followed below.

A short description of series [1]: physchem. The conditions noted are these: PBS, pH 6.5.
Description: Solubility of compound in PBS at pH 6.5 incubated for over night by HPLC-UV based lyophilization solubility assay
Series [2] in a line: physchem.
Description: Ionization constant (acid), pKa of the compound by photometric titration assay
The test system of series [3] is Escherichia coli. The experiment in a line: microbe, parasite or virus in culture. The conditions noted are these: ATCC 29213.
Description: Antibacterial activity against Escherichia coli ATCC 29213 assessed as reduction in microbial growth preincubated for 20 to 24 hrs followed by subculture in absence of compound and measured on day 4 CLSI based broth microdilution susceptibility method
Series [4] can be described thus: in vitro. The conditions noted are these: mouse, liver microsomes. A general note: Microsomes from liver hold many membrane-bound enzymes, among them those of drug oxidation.
Description: Intrinsic clearance in mouse liver microsomes preincubated for 10 mins followed by NADPH regenerating system addition and measured up to 30 mins by LC/MS-MS analysis
In series [5] the test system is Escherichia coli. The experiment in a line: microbe, parasite or virus in culture. The conditions noted are these: ATCC 25922.
Description: Antibacterial activity against Escherichia coli ATCC 25922 assessed as reduction in microbial growth preincubated for 20 to 24 hrs followed by subculture in absence of compound and measured on day 4 CLSI based broth microdilution susceptibility method
A short description of series [6]: Distribution coefficient between octanol and buffer, log D of the compound in pH 7.4 buffer by CAMDIS assay. The format is physicochemical.

Values after ≈ are worked out from the molar mass of the structure shown.

With `CCNc1cc(F)cc2c1[nH]c1ncc(-c3cnc(NC4CCNCC4)nc3)c(-n3ccc(C(F)(F)F)n3)c12`, in series [1], the solubility was found to be 7.6 µg/mL (≈ 14.1 µM). The compound also showed a pKa in series [2] of 9.52. In addition, the results for the MIC in series [3] and in series [5] were 0.63 µg/mL (≈ 1.17 µM) and 1 µg/mL (≈ 1.85 µM), respectively. The compound further displayed an intrinsic metabolic clearance (CLint scaled) at 0.5 h in series [4] of 57.9 mL/min/kg.
Taken in the same sequence, the figures for `CCNc1cc(F)cc2c1[nH]c1ncc(-c3cnc(N4CCNCC4)nc3)c(-n3ccc(C(F)(F)F)n3)c12` were below 1 µg/mL, 8.6, 0.31 µg/mL (≈ 0.59 µM), 1 µg/mL (≈ 1.9 µM) and 61.4 mL/min/kg.
With `CCNc1cc(F)cc2c1[nH]c1ncc(-c3cnc(N)nc3)c(-n3ccc(C(F)(F)F)n3)c12`, in series [1], the concentration in solution (solubility) came to 7.6 µg/mL (≈ 16.7 µM). Also, in series [2], the pKa worked out at 4.39. Moreover, the figures for the MIC in series [3] and in series [5] were 0.63 µg/mL (≈ 1.38 µM) and 1 µg/mL (≈ 2.19 µM), respectively. This compound came in with an intrinsic clearance (CLint scaled) at 0.5 h in series [4] of 25.9 mL/min/kg.
With `CCNc1cc(F)cc2c1[nH]c1ncc(-c3cnc(OC4CCNCC4)nc3)c(-n3ccc(C(F)(F)F)n3)c12`, the pKa in series [2] stood at 9.06. Further, the MIC in series [3] was 0.63 µg/mL (≈ 1.17 µM); in series [5] it was 1 µg/mL (≈ 1.85 µM).
`CCNc1cc(F)cc2c1[nH]c1ncc(-c3cncc(CN)c3)c(-n3ccc(C(F)(F)F)n3)c12` displayed a pH-dependent lipophilicity (logD) in series [6] of 2.94. The same compound returned a pKa in series [2] of 8.62. The MIC was below 0.25 µg/mL in series [3] and 1 µg/mL (≈ 2.13 µM) in series [5].
For the compound `CCNc1cc(F)cc2c1[nH]c1ncc(-c3cnc(NC4CNC4)nc3)c(-n3ccc(C(F)(F)F)n3)c12`, the pKa in series [2] was 9.35. In addition, the results for the MIC in series [3] and in series [5] were below 0.25 µg/mL and 4 µg/mL (≈ 7.82 µM), respectively.
Turning to `CCNc1cc(F)cc2c1[nH]c1ncc(-c3cncc(Cc4ncco4)c3)c(-n3ccc(C(F)(F)F)n3)c12`, in series [6], the pH-dependent lipophilicity (logD) was 3.66. Also, the figures for the MIC in series [3] and in series [5] were below 0.056 µg/mL and 0.71 µg/mL (≈ 1.36 µM), respectively.
Turning to `CCNc1cc(F)cc2c1[nH]c1ncc(-c3cnc(NC4CCNC4)nc3)c(-n3ccc(C(F)(F)F)n3)c12` (centres undefined), the solubility in series [1] was determined as 8.3 µg/mL (≈ 15.8 µM). This compound also came in with a pKa in series [2] of 9.55. Also, the results for the MIC in series [3] and in series [5] were 0.25 µg/mL (≈ 0.476 µM) and 2 µg/mL (≈ 3.81 µM), respectively. Further, the intrinsic clearance (CLint scaled) at 0.5 h in series [4] was 60.1 mL/min/kg.
The compound `CCNc1cc(F)cc2c1[nH]c1ncc(-c3cncc(C#N)c3)c(-n3ccc(N)n3)c12` gave a pKa in series [2] of 2.02. The figures for the MIC in series [3] and in series [5] were 0.125 µg/mL (≈ 0.303 µM) and 8 µg/mL (≈ 19.4 µM), respectively.
Compound `CCNc1cc(F)cc2c1[nH]c1ncc(-c3cnc(OC4CNC4)nc3)c(-n3ccc(C(F)(F)F)n3)c12` had a pKa in series [2] of 8.62. Further, the MIC in series [3] worked out at 0.63 µg/mL (≈ 1.23 µM); in series [5], 1 µg/mL (≈ 1.95 µM).

As usually defined, the solubility is how much of the substance goes into solution per volume. The term pKa denotes the negative logarithm of the acid dissociation constant. A higher pKa goes with a weaker acid or stronger base. The term CLint scaled denotes the rate of metabolic loss divided by the concentration. The low end stands for greater metabolic stability, the high end for faster metabolism. In general, logD refers to the decadic logarithm of the distribution of all forms, ionised or not, between an organic phase and buffer at a given pH. Low values mean lower lipophilicity, high ones higher lipophilicity.
